Experimental data: ChEMBL document CHEMBL1909046, “DrugMatrix in vitro pharmacology data”

Tests used:
Neutrophil elastase = target: T1, Neutrophil elastase (Homo sapiens, UniProt P08246); assay type: tissue-based;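 also: inhibition of neutrophil elastase enzyme activity, measured with a p-nitroanilide-linked peptide substrate; in other assays of this panel Not Active means under 50% inhibition at 10 µM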
T1 sequence (P08246 whole entry): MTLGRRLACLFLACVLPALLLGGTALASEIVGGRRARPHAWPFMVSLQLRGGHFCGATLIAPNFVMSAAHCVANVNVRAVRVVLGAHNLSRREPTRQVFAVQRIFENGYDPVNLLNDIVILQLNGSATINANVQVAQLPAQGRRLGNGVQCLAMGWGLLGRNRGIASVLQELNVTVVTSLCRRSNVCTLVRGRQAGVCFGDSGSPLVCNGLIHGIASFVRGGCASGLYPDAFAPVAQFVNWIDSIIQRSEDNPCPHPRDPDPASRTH

[1] = target: T2, Polyunsaturated fatty acid lipoxygenase ALOX15 (Oryctolagus cuniculus, UniProt P12530); test: biochemical; assay type: tissue-based, Reticulocytes; conditions: reticulocytes;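 also: inhibition of 15-lipoxygenase enzyme activity measured with linoleic acid as the substrate; in other assays of this panel Not Active means under 50% inhibition at 10 µM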
T2 sequence (P12530 whole entry): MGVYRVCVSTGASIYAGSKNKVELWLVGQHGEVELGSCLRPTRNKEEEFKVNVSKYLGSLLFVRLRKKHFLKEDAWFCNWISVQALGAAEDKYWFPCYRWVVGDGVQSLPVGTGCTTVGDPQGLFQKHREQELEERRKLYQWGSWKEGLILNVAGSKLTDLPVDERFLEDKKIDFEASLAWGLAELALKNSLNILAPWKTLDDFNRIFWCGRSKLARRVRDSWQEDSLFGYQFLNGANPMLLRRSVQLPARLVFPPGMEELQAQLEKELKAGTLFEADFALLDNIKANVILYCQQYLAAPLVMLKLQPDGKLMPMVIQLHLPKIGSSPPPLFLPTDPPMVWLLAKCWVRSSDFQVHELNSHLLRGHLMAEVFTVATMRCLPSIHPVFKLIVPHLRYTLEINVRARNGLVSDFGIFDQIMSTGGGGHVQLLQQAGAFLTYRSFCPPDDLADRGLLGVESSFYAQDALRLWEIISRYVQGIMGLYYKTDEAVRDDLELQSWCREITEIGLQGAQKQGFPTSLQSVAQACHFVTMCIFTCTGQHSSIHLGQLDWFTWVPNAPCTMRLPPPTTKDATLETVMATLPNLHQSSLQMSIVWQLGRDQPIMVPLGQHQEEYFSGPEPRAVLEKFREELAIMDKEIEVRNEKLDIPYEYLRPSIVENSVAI

[2] = DRUGMATRIX: Sodium/nucleoside co-transporter radioligand binding (ligand: nitrobenzylthioinosine); assay type: cell membranes, Cavia porcellus, Dunkin-Hartley, Cerebral cortex, Membrane; conditions: Not Active = under 50% inhibition at 10 µM
[3] = target: Beta-1 adrenergic receptor (Homo sapiens, UniProt P08588); test: DRUGMATRIX: Adrenergic beta1 radioligand binding (ligand: [125I] Cyanopindolol); assay type: cell membranes, CHO-K1, Membrane; conditions: cho-k1; Not Active = under 50% inhibition at 10 µM
Beta-1 adrenergic receptor, sequence (P08588 whole entry): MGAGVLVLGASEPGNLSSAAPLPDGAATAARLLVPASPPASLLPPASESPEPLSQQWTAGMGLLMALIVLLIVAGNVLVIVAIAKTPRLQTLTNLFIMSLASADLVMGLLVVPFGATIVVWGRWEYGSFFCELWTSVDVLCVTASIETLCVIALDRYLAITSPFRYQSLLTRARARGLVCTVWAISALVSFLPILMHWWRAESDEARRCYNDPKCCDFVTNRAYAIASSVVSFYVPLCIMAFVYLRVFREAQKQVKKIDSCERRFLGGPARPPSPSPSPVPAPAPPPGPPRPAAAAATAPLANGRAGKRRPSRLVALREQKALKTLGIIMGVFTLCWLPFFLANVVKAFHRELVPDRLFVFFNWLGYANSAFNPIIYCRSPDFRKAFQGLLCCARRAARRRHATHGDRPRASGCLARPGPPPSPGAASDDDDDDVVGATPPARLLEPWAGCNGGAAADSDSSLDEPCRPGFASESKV

[4] = target: cGMP-specific 3',5'-cyclic phosphodiesterase (Homo sapiens, UniProt O76074); test: DRUGMATRIX: Phosphodiesterase PDE5 enzyme inhibition (substrate: [3H]cGMP + cGMP); assay type: tissue-based, Platelet; conditions: platelet; Not Active = under 50% inhibition at 10 µM
[5] = target: Kappa-type opioid receptor (Homo sapiens, UniProt P41145); test: DRUGMATRIX: Opiate kappa (OP2, KOP) radioligand binding (ligand: [3H] Diprenorphine); assay type: cell membranes, HEK293, Membrane; conditions: hek293; Not Active = under 50% inhibition at 10 µM
Kappa-type opioid receptor, sequence (P41145 whole entry): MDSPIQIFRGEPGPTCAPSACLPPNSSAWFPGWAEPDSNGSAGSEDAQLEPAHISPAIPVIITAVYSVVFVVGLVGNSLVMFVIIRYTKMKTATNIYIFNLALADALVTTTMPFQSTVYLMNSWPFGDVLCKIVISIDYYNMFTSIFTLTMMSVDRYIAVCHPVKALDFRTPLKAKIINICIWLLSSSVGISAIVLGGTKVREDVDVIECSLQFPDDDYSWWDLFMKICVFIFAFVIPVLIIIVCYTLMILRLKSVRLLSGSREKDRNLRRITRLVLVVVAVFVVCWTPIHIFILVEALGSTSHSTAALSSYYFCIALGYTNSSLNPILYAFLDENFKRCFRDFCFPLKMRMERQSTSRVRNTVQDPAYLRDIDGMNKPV

[6] = target: T3, Alpha-2A adrenergic receptor (Homo sapiens, UniProt P08913); assay type: cell membranes, Sf9, Membrane; conditions: sf9; also: in other assays of this panel Not Active means under 50% inhibition at 10 µM
T3 sequence (P08913 whole entry): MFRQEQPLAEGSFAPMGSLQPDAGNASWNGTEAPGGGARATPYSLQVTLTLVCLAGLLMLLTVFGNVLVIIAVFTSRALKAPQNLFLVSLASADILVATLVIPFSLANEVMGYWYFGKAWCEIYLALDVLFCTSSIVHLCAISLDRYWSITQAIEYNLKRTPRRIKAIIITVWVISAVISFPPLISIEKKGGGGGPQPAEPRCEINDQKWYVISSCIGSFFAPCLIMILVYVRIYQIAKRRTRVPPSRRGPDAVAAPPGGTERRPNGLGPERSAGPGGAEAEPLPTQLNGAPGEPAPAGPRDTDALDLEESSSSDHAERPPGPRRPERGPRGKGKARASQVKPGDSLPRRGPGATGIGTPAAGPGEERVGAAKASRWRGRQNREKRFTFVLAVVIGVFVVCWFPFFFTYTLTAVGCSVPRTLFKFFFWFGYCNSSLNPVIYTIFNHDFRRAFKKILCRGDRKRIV

[7] = target: Beta-2 adrenergic receptor (Homo sapiens, UniProt P07550); test: DRUGMATRIX: Adrenergic beta2 radioligand binding (ligand: [3H] CGP-12177); assay type: cell membranes, Membrane; conditions: cho; Not Active = under 50% inhibition at 10 µM
Beta-2 adrenergic receptor, sequence (P07550 whole entry): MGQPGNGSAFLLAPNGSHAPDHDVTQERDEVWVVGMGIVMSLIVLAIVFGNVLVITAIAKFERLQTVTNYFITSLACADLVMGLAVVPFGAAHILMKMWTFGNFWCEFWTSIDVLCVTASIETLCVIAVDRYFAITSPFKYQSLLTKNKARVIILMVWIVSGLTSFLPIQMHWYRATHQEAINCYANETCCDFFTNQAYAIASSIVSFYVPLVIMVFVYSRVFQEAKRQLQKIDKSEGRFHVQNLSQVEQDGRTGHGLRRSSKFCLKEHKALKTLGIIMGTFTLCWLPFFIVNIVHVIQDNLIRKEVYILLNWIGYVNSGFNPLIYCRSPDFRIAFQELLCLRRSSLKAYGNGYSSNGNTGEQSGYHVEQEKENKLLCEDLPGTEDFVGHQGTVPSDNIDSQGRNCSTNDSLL

Adenosine receptor A2a = Adenosine receptor A2a (Homo sapiens, UniProt P29274); test: DRUGMATRIX: Adenosine A2A radioligand binding (ligand: […]); assay type: cell membranes, HEK293, Membrane; conditions: hek293; Not Active = under 50% inhibition at 10 µM
Adenosine receptor A2a, sequence (P29274 whole entry): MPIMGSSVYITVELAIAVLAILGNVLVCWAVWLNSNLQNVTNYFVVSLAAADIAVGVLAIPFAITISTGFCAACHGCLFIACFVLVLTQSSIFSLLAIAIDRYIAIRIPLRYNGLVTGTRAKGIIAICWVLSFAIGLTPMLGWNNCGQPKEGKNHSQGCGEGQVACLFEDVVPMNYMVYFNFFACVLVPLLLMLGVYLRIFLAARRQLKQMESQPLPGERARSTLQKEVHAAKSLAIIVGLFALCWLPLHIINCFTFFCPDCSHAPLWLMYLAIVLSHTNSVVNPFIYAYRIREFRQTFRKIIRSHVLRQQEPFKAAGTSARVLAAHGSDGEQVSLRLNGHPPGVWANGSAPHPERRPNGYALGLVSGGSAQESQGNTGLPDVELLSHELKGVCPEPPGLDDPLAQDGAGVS

[8] = target: T4, Muscarinic acetylcholine receptor M4 (Homo sapiens, UniProt P08173); assay type: cell membranes, CHO-K1, Membrane; conditions: cho-k1; also: in other assays of this panel Not Active means under 50% inhibition at 10 µM
T4 sequence (P08173 whole entry): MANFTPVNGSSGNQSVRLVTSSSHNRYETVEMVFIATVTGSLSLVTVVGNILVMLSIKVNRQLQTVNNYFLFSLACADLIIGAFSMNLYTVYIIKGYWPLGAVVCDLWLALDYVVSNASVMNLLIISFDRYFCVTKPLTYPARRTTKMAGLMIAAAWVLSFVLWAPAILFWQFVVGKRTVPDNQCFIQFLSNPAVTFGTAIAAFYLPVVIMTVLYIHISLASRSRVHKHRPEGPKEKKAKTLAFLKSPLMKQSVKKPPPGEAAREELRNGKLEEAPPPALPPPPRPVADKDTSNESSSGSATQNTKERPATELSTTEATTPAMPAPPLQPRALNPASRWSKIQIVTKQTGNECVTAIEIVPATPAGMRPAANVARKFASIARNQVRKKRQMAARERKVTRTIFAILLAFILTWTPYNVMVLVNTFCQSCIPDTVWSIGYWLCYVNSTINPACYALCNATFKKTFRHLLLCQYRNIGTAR

[9] = DRUGMATRIX: Calcium Channel Type L, Phenylalkylamine radioligand binding (ligand: [3H] (-)-Desmethoxyverapamil (D-888)); assay type: cell membranes, Rattus norvegicus, Wistar, Brain, Membrane; conditions: Not Active = under 50% inhibition at 10 µM
D(1A) dopamine receptor = D(1A) dopamine receptor (Homo sapiens, UniProt P21728); test: DRUGMATRIX: Dopamine D1 radioligand binding (ligand: [3H] SCH-23390); assay type: cell membranes, CHO, Membrane; conditions: cho; Not Active = under 50% inhibition at 10 µM
D(1A) dopamine receptor, sequence (P21728 whole entry): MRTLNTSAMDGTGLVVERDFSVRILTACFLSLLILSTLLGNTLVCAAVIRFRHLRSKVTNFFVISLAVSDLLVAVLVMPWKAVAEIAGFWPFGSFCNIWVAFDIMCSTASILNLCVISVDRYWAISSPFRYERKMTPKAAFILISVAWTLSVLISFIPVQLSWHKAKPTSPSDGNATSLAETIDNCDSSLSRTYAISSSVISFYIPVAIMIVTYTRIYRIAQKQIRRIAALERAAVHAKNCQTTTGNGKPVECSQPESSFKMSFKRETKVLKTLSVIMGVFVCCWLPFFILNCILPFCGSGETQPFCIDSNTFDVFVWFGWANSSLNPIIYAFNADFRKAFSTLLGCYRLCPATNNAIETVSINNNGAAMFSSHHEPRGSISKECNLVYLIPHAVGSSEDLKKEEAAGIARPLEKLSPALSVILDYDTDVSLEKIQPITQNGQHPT

Cc1ccc(C(=O)C(C)CN2CCCCC2)cc1 (centres undefined) [TOLPERISONE]
Not Active: IC50 (Neutrophil elastase) | IC50 [1] | IC50 [2] | Ki [2] | IC50 [3] | IC50 [4] | IC50 [5] | IC50 [6] | IC50 [7] | IC50 (Adenosine receptor A2a) | IC50 [8] | IC50 [9] | Ki [9] | IC50 (D(1A) dopamine receptor)

NC(CO)(CO)CO [TROMETHAMINE]
Not Active: IC50 (Neutrophil elastase) | IC50 [1] | IC50 [2] | Ki [2] | IC50 [3] | IC50 [4] | IC50 [5] | IC50 [6] | IC50 [7] | IC50 (Adenosine receptor A2a) | IC50 [8] | IC50 [9] | Ki [9] | IC50 (D(1A) dopamine receptor)

CN1[C@@H]2CC[C@H]1C[C@@H](OC(=O)c1c[nH]c3ccccc13)C2 [TROPISETRON]
Not Active: IC50 (Neutrophil elastase) | IC50 [1] | IC50 [2] | Ki [2] | IC50 [3] | IC50 [4] | IC50 [5] | IC50 [6] | IC50 [7] | IC50 (Adenosine receptor A2a) | IC50 [8] | IC50 [9] | Ki [9] | IC50 (D(1A) dopamine receptor)

COc1cc(C(=O)NC2CCCNC2)cc(OC)c1OC (centres undefined) [TROXIPIDE]
Not Active: IC50 (Neutrophil elastase) | IC50 [1] | IC50 [2] | Ki [2] | IC50 [3] | IC50 [4] | IC50 [5] | IC50 [6] | IC50 [7] | IC50 (Adenosine receptor A2a) | IC50 [8] | IC50 [9] | Ki [9] | IC50 (D(1A) dopamine receptor)

CC(C)[C@H](N)C(=O)OCCOCn1cnc2c(=O)nc(N)[nH]c21 [VALACYCLOVIR]
Not Active: IC50 (Neutrophil elastase) | IC50 [1] | IC50 [2] | Ki [2] | IC50 [3] | IC50 [4] | IC50 [5] | IC50 [6] | IC50 [7] | IC50 (Adenosine receptor A2a) | IC50 [8] | IC50 [9] | Ki [9] | IC50 (D(1A) dopamine receptor)

CN[C@H](CC(C)C)C(=O)N[C@H]1C(=O)N[C@@H](CC(N)=O)C(=O)N[C@H]2C(=O)N[C@H]3C(=O)N[C@H](C(=O)N[C@H](C(=O)O)c4cc(O)cc(O)c4-c4cc3ccc4O)[C@H](O)c3ccc(c(Cl)c3)Oc3cc2cc(c3O[C@@H]2O[C@H](CO)[C@@H](O)[C@H](O)[C@H]2O[C@H]2C[C@](C)(N)[C@H](O)[C@H](C)O2)Oc2ccc(cc2Cl)[C@H]1O [VANCOMYCIN]
Not Active: IC50 (Neutrophil elastase) | IC50 [1] | IC50 [2] | Ki [2] | IC50 [3] | IC50 [4] | IC50 [5] | IC50 [6] | IC50 [7] | IC50 (Adenosine receptor A2a) | IC50 [8] | IC50 [9] | Ki [9] | IC50 (D(1A) dopamine receptor)
